Patent publication US7825126B2 (The United States of America as represented by the …, priority 2004, dated 2010)
Where two headings read alike, the source gives them in different places.

Key:
human A2A receptors = molecular target: T1, human A2A receptors (Homo sapiens, UniProt P29274); test: Binding at human A2A adenosine receptor ([3H]CGS21680, HEK-293 cell membranes); details: [3H]CGS 21680; for Ki: mean ± s.e.m., n = 3-5, read-out: Ki(hA2AAR)
T1 construct: expressed in transfected cells
Experimental: (§1) Binding assays at the A1 and A2A receptors. […] Reaction was terminated by filtration with GF/B filters.
(§2) Statistical analysis Binding and functional parameters were calculated using Prism 5.0 software (GraphPAD, San Diego, Calif., USA). IC50 values obtained from competition curves were converted to Ki values using the Cheng-Prusoff equation.

[1] = molecular target: T2, human A2B adenosine receptor (hA2BAR) (Homo sapiens, UniProt P29275); test: Activation of human A2B adenosine receptor at 10 μM; type: cell-based; details: CHO cells
T2 sequence (P29275 1-332): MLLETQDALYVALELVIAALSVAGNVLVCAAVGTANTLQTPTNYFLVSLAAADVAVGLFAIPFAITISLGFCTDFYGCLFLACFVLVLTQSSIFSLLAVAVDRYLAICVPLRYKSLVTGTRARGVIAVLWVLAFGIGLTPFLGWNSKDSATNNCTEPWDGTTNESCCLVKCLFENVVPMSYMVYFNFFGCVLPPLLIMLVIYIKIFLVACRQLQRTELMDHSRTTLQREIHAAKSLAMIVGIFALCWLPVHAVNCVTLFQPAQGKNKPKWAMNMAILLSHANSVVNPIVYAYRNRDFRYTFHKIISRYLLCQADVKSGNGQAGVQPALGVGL

human A1 receptors = molecular target: T3, human A1 receptors (Homo sapiens, UniProt P30542); test: Binding at human A1 adenosine receptor ([3H]R-PIA, CHO cell membranes); details: for Ki: mean ± s.e.m., n = 3-5, read-out: Ki(hA1AR)
T3 construct: expressed in transfected cells
T3 sequence (P30542 1-326): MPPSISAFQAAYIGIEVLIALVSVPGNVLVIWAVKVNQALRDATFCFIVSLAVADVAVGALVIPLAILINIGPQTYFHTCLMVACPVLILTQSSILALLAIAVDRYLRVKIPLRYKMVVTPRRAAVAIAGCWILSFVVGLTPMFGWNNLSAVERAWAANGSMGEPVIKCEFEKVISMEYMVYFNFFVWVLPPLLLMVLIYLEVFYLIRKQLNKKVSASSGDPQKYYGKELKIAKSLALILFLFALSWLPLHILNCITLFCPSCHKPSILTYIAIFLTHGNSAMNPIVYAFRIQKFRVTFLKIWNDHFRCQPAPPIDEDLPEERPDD
Experimental: as §1, §2

[2] = molecular target: T4, human A3 adenosine receptor (Homo sapiens, UniProt P0DMS8); test: Cyclic AMP accumulation assay (inhibition of forskolin-stimulated cAMP), CHO cells expressing human A3 adenosine receptor; details: 10 μM, relative to 10 μM Cl-IB-MECA
T4 sequence (P0DMS8 1-318): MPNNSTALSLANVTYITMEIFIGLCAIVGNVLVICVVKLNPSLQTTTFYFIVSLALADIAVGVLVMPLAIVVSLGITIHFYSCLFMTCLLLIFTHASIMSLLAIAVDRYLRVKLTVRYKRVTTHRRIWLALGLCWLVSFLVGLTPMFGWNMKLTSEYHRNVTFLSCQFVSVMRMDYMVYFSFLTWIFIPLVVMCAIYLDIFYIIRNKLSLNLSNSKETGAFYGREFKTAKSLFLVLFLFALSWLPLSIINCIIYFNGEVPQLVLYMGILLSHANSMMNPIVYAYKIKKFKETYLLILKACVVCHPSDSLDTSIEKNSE
Experimental: The cyclic AMP accumulation assay was performed as follows. Intracellular cyclic AMP levels were measured with a competitive protein binding method. […] After centrifugation and resuspension in medium, cells were plated in 24-well plates in 1.0 ml medium. […] The reaction was terminated by removing the supernatant, and cells were lysed upon the addition of 200 μL of 0.1 M ice-cold HCl. The cell lysate was resuspended and stored at −20° C. For determination of cyclic AMP production, protein kinase A (PKA) was incubated with [^3H]cyclic AMP (2 nM) in K2HPO4/EDTA buffer (K2HPO4, 150 mM; EDTA, 10 mM), 20 μL of the cell lysate, and 30 μL 0.1 M HCl or 50 μL of cyclic AMP solution (0-16 pmol/200 μL for standard curve). Bound radioactivity was separated by rapid filtration through Whatman GF/C filters and washed once with cold buffer. Bound radioactivity was measured by liquid scintillation spectrometry.
Forskolin (10 μM) was used to stimulate cyclic AMP levels.

[3] = molecular target: T4, human A3 adenosine receptor; set-up: expressed in transfected cells; host or cells: CHO cells; details: relative to 10 μM Cl-IB-MECA, data from literature (footnotes c, d, e, f); cited from earlier work
[4] = molecular target: T4, human A3 adenosine receptor; test: Binding at human A3 adenosine receptor ([125I]I-AB-MECA, CHO cell membranes); set-up: expressed in transfected cells; host or cells: CHO cells; details: [125I]I-AB-MECA; mean ± s.e.m., n = 3-5; read-out: Ki(hA3AR)
Experimental: Striatal and forebrain tissues from Wistar rats were homogenized in ice-cold 50 mM Tris-HCl buffer, pH 7.4, using an electric homogenizer. The homogenate was centrifuged at 20,000 g for 10 min at 4° C., and the pellet was washed in fresh buffer. The final pellet was stored at −80° C. until the binding experiments. The protein concentration was measured using the Bradford assay. […] The mixtures were incubated at 37° C. for 60 min. […] Filters were washed three times with 9 ml ice-cold buffer. Radioactivity was determined in a Beckman 5500B γ-counter. Statistical analysis Binding and functional parameters were calculated using Prism 5.0 software (GraphPAD, San Diego, Calif., USA). IC50 values obtained from competition curves were converted to Ki values using the Cheng-Prusoff equation.

T1 sequence (P29274 whole entry): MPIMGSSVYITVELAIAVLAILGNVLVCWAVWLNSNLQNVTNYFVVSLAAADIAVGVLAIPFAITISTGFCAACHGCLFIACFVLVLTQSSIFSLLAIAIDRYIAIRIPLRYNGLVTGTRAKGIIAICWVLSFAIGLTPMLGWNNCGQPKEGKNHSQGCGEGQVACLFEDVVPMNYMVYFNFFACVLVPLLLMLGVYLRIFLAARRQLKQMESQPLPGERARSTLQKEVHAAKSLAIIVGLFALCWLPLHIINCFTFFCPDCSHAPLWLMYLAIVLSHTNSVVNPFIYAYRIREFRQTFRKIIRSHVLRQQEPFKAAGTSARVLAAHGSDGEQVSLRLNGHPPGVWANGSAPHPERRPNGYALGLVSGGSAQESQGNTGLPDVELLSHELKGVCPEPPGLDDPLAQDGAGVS

SMILES	Ki (human A2A receptors)	% Activation (hA2BAR) at 10 μM [1]	% displ. at 10 μM (hA2AAR) (human A2A receptors)	other results
CNC(=O)[C@@]12C[C@@H]1[C@@H](n1cnc3c(N[C@@H]4C[C@H]4c4ccccc4)nc(Cl)nc31)[C@H](O)[C@@H]2O (relative stereo) [Compound 33, (1′S,2′R,3′S,4′R,5′S)-(4′-{2-chloro-6-[(trans-2-phenylcyclopropyl)amino]purin-9-yl}-2′,3′-dihydroxybicyclo[3.1.0]hexyl)-N-methylcarboxamide]	4800 ± 200 nM	48%	–	–
CNC(=O)[C@@]12C[C@@H]1[C@@H](n1cnc3c(NCc4cccc(I)c4)nc(Cl)nc31)[C@H](O)[C@@H]2O [Compound 4, reference compound]	1600 ± 400 nM	–	–	Ki (human A1 receptors): 65 ± 17 nM; % Activation (hA3AR) at 10 μM [2]: 3 ± 2%
OC[C@H]1O[C@@H](n2cnc3c(NCc4cccc(Cl)c4)ncnc32)[C@H](O)[C@@H]1O [Compound 8, reference compound]	1400 ± 200 nM	–	–	Ki (human A1 receptors): 20 ± 3 nM; % Activation (hA3AR) at 10 μM [3]: 80 ± 3^d %
CNC(=O)[C@@]12C[C@@H]1[C@H](n1cnc3c(NC)nc(N)nc31)[C@H](O)[C@@H]2O [Compound 15, (1′S,2′R,3′S,4′S,5′S)-4′-[6-Methylamino-2-amino-purin-9-yl]-2′,3′-dihydroxy-bicyclo[3.1.0]hexane-1′-carboxylic acid methylamide]	–	–	17%	–
CNC(=O)[C@@]12C[C@@H]1[C@@H](n1cnc3c(NCc4cccc(I)c4)ncnc31)[C@H](O)[C@@H]2O [Compound 16]	6200 ± 100 nM	–	–	Ki (human A1 receptors): 700 ± 270 nM; % Activation (hA3AR) at 10 μM [3]: 100^e %
CNC(=O)C12CC1C(n1cnc3c(NCc4cccc(F)c4)nc(Cl)nc31)C(O)C2O (stereo not drawn) [Compound 19, (1′S,2′R,3′S,4′S,5′S)-4′-[6-(3-Fluorobenzylamino)-2-chloro-purin-9-yl]-2′,3′-dihydroxy-bicyclo[3.1.0]hexane-1′-carboxylic acid methylamide]	5100 ± 200 nM	28%	–	–
CNC(=O)[C@@]12C[C@@H]1[C@H](n1cnc3c(NCc4cc(Cl)ccc4Cl)nc(Cl)nc31)[C@H](O)[C@@H]2O [Compound 20, (1′S,2′R,3′S,4′S,5′S)-4′-[6-(2,5-Dichlorobenzylamino)-2-chloro-purin-9-yl]-2′,3′-dihydroxy-bicyclo[3.1.0]hexane-1′-carboxylic acid methyl amide]	1300 ± 100 nM	32%	–	–
CNC(=O)C12CC1C(n1cnc3c(NCc4cc(I)ccc4Cl)nc(Cl)nc31)C(O)C2O (stereo not drawn) [Compound 21, (1′S,2′R,3′S,4′S,5′S)-4′-[6-(2-Chloro-5-iodo-benzylamino)-2-chloro-purin-9-yl]-2′,3′-dihydroxy-bicyclo[3.1.0]hexane-1′-carboxylic acid methylamide]	480 ± 20 nM	58%	–	–
CNC(=O)C12CC1C(n1cnc3c(NCc4cc(Cl)ccc4OC)nc(Cl)nc31)C(O)C2O (stereo not drawn) [Compound 22, (1′S,2′R,3′S,4′S,5′S)-4′-[6-(5-Chloro-2-methoxy-benzylamino)-2-chloro-purin-9-yl]-2′,3′-dihydroxy-bicyclo[3.1.0]hexane-1′-carboxylic acid methylamide]	1200 ± 100 nM	37%	–	–
CNC(=O)C12CC1C(n1cnc3c(NCc4cc(Cl)ccc4OCC(N)=O)nc(Cl)nc31)C(O)C2O (stereo not drawn) [Compound 23, (1′S,2′R,3′S,4′S,5′S)-4′-[6-(5-Chloro-2-(aminocarbonylmethyloxy)-benzylamino)-2-chloro-purin-9-yl]-2′,3′-dihydroxy-bicyclo[3.1.0]hexane-1′-carboxylic acid methylamide]	800 ± 70 nM	–	–	–
CNC(=O)C12CC1C(n1cnc3c(NCc4cc(I)ccc4OC)nc(Cl)nc31)C(O)C2O (stereo not drawn) [Compound 25, (1′S,2′R,3′S,4′S,5′S)-4′-[6-(5-Iodo-2-methoxy-benzylamino)-2-chloro-purin-9-yl]-2′,3′-dihydroxy-bicyclo[3.1.0]hexane-1′-carboxylic acid methylamide]	430 ± 30 nM	46%	–	–
CNC(=O)C12CC1C(n1cnc3c(NCc4ccccc4C)nc(Cl)nc31)C(O)C2O (stereo not drawn) [Compound 27, (1′S,2′R,3′S,4′S,5′S)-4′-[6-(2-Methyl-benzylamino)-2-chloro-purin-9-yl]-2′,3′-dihydroxy-bicyclo[3.1.0]hexane-1′-carboxylic acid methylamide]	3800 ± 200 nM	24%	–	–
CNC(=O)C12CC1C(n1cnc3c(NCc4cccc(C)c4)nc(Cl)nc31)C(O)C2O (stereo not drawn) [Compound 28, (1′S,2′R,3′S,4′S,5′S)-4′-[6-(3-Methyl-benzylamino)-2-chloro-purin-9-yl]-2′,3′-dihydroxy-bicyclo[3.1.0]hexane-1′-carboxylic acid methylamide]	3700 ± 600 nM	46%	–	–
CNC(=O)C12CC1C(n1cnc3c(NCc4cccc(C#CCO)c4)nc(Cl)nc31)C(O)C2O (stereo not drawn) [Compound 29, (1′S,2′R,3′S,4′S,5′S)-4′-[6-(3-(3-Hydroxypropynyl)-benzylamino)-2-chloro-purin-9-yl]-2′,3′-dihydroxy-bicyclo[3.1.0]hexane-1′-carboxylic acid methylamide]	–	28%	56%	–
CNC(=O)C12CC1C(n1cnc3c(NCc4cc(C#CCO)ccc4Cl)nc(Cl)nc31)C(O)C2O (stereo not drawn) [Compound 30, (1′S,2′R,3′S,4′S,5′S)-4′-[6-(2-Chloro-5-(3-hydroxypropynyl)-benzylamino)-2-chloro-purin-9-yl]-2′,3′-dihydroxy-bicyclo[3.1.0]hexane-1′-carboxylic acid methylamide]	–	6%	12%	% displ. at 10 μM (hA1AR) (human A1 receptors; 10 μM): 14%; Ki [4]: 217 ± 27 nM; % Activation (hA3AR) at 10 μM [2]: 108 ± 5%
CNC(=O)C12CC1C(n1cnc3c(NCc4ccc(N)cc4)nc(Cl)nc31)C(O)C2O (stereo not drawn) [Compound 31a, (1′S,2′R,3′S,4′S,5′S)-4′-[6-(4-Amino-benzylamino)-2-chloro-purin-9-yl]-2′,3′-dihydroxy-bicyclo[3.1.0]hexane-1′-carboxylic acid methylamide]	–	22%	28%	–
CNC(=O)[C@@]12C[C@@H]1[C@@H](n1cnc3c(NCc4ccc(N)c(I)c4)nc(Cl)nc31)[C@H](O)[C@@H]2O [Compound 31b]	1100 ± 100 nM	–	–	–
CNC(=O)C12CC1C(n1cnc3c(NCc4cccnc4)nc(Cl)nc31)C(O)C2O (stereo not drawn) [Compound 32, (1′S,2′R,3′S,4′S,5′S)-4′-[6-(3-Pyridylmethylamino)-2-chloro-purin-9-yl]-2′,3′-dihydroxy-bicyclo[3.1.0]hexane-1′-carboxylic acid methylamide]	–	4%	33%	–
CCOC(=O)[C@@]12C[C@@H]1[C@H](n1cnc3c(NCc4cccc(Cl)c4)nc(I)nc31)[C@H](O)[C@@H]2O [Compound 35, (1′S,2′R,3′S,4′S,5′S)-4′-[6-(3-Chlorobenzylamino)-2-iodo-purin-9-yl]-2′,3′-dihydroxy-bicyclo[3.1.0]hexane-1′-carboxylic acid ethyl ester]	–	–	43%	–
CNC(=O)C12CC1C(n1cnc3c(NCc4cccc(Cl)c4)nc(SC)nc31)C(O)C2O (stereo not drawn) [Compound 36]	–	–	52%	% Activation (hA3AR) at 10 μM [2]: 100 ± 4%
